For 24 compounds, IC50 results are on record in patent US10660877B2 (BRISTOL-MYERS SQUIBB COMPANY, priority 2016, dated 2020).

The target in one assay is human TLR9 (Homo sapiens (Human), UniProt Q9NR96). Kind of assay: TLR9 inhibition reporter assay (HEK-Blue cells, SEAP reporter, ODN2006 stimulation). (In general: In a reporter assay the amount or activity of a reporter protein is the signal.);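 also: compounds tested over 0.05 nM to 50 µM, 22 h incubation, inhibition taken as SEAP signal drop from agonist plus DMSO wells toward a known inhibitor control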
The next assay deals with human TLR8 (Homo sapiens (Human), UniProt Q9NR97). The assay is described as follows: TLR8 inhibition reporter assay (HEK-Blue cells, SEAP reporter, R848 stimulation).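 Also: compounds tested from 0.05 nM to 50 µM, 22 h at 37 °C, SEAP measured with HEK-Blue Detection, inhibition relative to agonist plus DMSO versus a known inhibitor.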
A further assay has as its target human TLR7 (Homo sapiens (Human), UniProt Q9NYK1). The assay is described as follows: TLR7 inhibition reporter assay (HEK-Blue cells, SEAP reporter, gardiquimod stimulation). The class given is cell-based.
Where [1] appears, read: read-out: TLR9 IC50, HEK-Blue cells, ODN2006 5 nM.
[2] abbreviates: read-out: TLR8 IC50, HEK-Blue cells, R848 15.9 μM.
Setting [3] is: HEK-Blue cells, gardiquimod 7.5 μM.
[4] abbreviates: read-out: TLR9 IC50, HEK-Blue cells overexpressing human TLR9, ODN2006 5 nM.
The mark [5] stands for this setting: read-out: TLR8 IC50, HEK-Blue cells overexpressing human TLR8, R848 15.9 μM.
The mark [6] stands for this setting: HEK-Blue cells overexpressing human TLR7, gardiquimod 7.5 μM.
Where [7] appears, read: TLR9 IC50, HEK-Blue cells overexpressing human TLR9, ODN2006 5 nM.
The mark [8] stands for this setting: TLR8 IC50, HEK-Blue cells overexpressing human TLR8, R848 15.9 μM.

Read-outs that look alike come from different tables or passages of the source.

human TLR8, sequence (Q9NR97 27-1041): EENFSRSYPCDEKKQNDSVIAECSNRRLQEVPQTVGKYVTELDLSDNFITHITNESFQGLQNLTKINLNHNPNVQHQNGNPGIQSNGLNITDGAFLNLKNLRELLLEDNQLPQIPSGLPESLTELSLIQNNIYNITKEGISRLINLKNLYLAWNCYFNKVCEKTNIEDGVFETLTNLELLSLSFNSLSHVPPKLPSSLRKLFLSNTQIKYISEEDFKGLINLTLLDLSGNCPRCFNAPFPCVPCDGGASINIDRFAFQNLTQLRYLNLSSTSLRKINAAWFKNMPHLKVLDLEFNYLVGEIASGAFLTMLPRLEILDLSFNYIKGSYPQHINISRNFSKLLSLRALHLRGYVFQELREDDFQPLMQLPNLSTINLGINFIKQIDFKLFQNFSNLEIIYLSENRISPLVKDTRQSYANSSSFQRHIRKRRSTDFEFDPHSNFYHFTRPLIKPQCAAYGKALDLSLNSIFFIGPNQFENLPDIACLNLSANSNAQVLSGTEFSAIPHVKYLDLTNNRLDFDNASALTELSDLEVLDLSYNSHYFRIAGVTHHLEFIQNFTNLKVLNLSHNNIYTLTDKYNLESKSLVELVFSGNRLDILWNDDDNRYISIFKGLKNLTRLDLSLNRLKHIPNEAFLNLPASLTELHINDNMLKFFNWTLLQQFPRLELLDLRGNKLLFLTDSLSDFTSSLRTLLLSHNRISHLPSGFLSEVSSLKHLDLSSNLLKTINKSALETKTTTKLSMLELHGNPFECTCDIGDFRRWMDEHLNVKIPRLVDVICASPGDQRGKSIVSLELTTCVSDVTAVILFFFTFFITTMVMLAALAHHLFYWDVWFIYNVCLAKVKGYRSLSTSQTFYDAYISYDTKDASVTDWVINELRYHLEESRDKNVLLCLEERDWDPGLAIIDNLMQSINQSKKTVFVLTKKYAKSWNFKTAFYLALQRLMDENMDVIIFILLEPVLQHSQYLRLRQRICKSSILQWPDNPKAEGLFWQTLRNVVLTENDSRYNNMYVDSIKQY
human TLR7, sequence (Q9NYK1 27-1049): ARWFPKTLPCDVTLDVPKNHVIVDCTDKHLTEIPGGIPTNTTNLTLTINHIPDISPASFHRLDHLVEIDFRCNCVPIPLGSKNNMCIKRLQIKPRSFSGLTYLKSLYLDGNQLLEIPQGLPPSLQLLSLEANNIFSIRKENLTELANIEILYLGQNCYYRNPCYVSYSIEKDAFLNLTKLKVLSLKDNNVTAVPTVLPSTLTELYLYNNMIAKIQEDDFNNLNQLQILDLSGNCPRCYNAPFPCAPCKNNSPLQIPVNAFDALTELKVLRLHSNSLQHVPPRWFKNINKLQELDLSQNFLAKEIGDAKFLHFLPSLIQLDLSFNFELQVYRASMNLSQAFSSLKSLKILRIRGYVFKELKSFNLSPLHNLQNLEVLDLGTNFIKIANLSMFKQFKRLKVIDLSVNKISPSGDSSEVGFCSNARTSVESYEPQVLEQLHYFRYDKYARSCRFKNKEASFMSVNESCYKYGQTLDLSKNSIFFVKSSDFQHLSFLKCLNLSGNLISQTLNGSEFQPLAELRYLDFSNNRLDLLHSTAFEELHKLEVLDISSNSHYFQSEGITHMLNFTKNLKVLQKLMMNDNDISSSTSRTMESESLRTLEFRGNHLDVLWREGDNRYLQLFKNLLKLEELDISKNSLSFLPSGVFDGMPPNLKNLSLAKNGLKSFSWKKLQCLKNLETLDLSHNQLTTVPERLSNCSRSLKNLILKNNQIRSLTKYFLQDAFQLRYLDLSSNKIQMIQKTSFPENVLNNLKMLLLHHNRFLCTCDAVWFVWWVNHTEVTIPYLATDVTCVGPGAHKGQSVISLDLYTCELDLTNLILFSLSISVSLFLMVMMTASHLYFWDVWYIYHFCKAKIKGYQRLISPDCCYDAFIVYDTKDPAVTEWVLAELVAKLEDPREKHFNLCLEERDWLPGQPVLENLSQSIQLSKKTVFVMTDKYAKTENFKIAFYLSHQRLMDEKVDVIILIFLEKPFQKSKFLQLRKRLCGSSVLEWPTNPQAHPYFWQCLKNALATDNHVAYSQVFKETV
human TLR9, sequence (Q9NR96 26-1032): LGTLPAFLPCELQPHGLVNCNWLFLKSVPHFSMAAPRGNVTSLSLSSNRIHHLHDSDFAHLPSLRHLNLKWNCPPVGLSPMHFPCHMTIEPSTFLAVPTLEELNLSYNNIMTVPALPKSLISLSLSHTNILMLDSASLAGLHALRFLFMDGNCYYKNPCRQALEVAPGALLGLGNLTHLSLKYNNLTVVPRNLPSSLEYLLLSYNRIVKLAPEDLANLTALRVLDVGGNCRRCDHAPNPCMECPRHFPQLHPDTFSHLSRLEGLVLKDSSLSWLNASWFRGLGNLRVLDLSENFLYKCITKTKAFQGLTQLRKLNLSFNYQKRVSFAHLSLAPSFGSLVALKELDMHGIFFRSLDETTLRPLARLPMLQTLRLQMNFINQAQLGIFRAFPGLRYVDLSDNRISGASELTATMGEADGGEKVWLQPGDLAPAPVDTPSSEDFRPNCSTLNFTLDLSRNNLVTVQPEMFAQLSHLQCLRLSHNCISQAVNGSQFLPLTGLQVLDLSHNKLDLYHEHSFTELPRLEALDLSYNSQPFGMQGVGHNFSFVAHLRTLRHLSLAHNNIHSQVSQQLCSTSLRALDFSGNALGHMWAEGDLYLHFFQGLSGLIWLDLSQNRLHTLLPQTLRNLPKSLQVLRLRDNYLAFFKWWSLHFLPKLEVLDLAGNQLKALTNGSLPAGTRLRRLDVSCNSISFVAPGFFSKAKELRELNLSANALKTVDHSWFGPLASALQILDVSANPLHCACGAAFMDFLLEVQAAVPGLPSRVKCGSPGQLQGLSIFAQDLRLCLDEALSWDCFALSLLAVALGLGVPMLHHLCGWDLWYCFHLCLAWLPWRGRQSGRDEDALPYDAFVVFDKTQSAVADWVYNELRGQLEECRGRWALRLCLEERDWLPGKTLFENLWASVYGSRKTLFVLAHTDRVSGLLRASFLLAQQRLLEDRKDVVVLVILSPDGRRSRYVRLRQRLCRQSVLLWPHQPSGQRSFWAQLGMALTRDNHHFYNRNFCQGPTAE
Protocol for human TLR9: TLR7/8/9 Inhibition Reporter Assays
Briefly, cells are seeded into Greiner 384 well plates (15000 cells per well for TLR7, 20,000 for TLR8 and 25,000 for TLR9) and then treated with test compounds in DMSO to yield a final dose response concentration range of 0.05 nM-50 μM. […] After a 22 hour incubation at 37° C., 5% CO2, SEAP levels are determined with the addition of HEK-Blue™ Detection reagent (Invivogen), a cell culture medium that allows for detection of SEAP, according to manufacturer's specifications. The percent inhibition is determined as the % reduction in the HEK-Blue signal present in wells treated with agonist plus DMSO alone compared to wells treated with a known inhibitor.

Regarding `Cc1cc(-c2[nH]c3ccc(C4CCN(C(C)CF)CC4)cc3c2C(C)C)ccn1` (stereo not drawn) [Example 864, 5-(1-(1-fluoropropan-2-yl)piperidin-4-yl)-3-isopropyl-2-(2-methylpyridin-4-yl)-1H-indole], the results for the IC50 at human TLR9 (setting [1]), on human TLR8 (setting [2]) and at human TLR7 (setting [3]) were 917 nM, 10.7 nM and 16.7 nM, respectively.

Take `CNCC(=O)N1CCC(c2ccc3[nH]c(-c4cc(C)nc(C5CC5)c4)c(C(C)C)c3c2)CC1` [Example 508, 1-(4-(2-(2-cyclopropyl-6-methylpyridin-4-yl)-3-isopropyl-1H-indol-5-yl)piperidin-1-yl)-2-(methylamino)ethan-1-one]: the IC50 (usually the concentration at which inhibition is half-maximal) at human TLR9 (setting [4]) came out at 592 nM; at human TLR8 (setting [5]), 57.9 nM; on human TLR7 (setting [6]) it was 8.8 nM.

As to `Cc1cc(-c2[nH]c3cc(F)c(C4CCN(CC(=O)N(C)C)CC4)cc3c2C(C)C)cc(C)n1` [Example 837, 2-(4-(2-(2,6-dimethylpyridin-4-yl)-6-fluoro-3-isopropyl-1H-indol-5-yl)piperidin-1-yl)-N,N-dimethylacetamide], the IC50 at human TLR9 (setting [1]) amounted to 194 nM; on human TLR8 (setting [2]), 11.4 nM; on human TLR7 (setting [3]) it was 1.9 nM.

With `COC(=O)N1CCC(c2ccc3[nH]c(-c4ccnc(C)c4)c(C(C)C)c3c2)CC1` [Example 562, methyl 4-(3-isopropyl-2-(2-methylpyridin-4-yl)-1H-indol-5-yl) piperidine-1-carboxylate], the IC50 at human TLR9 (setting [4]) is more than 50000 nM; on human TLR8 (setting [5]), 1400 nM; against human TLR7 (setting [6]) it was 287 nM.

On to `COC(C)CN1CCC(c2ccc3[nH]c(-c4cc(C)nc(C)c4)c(C(C)C)c3c2)CC1` (stereo not drawn) [Example 332, 2-(2,6-dimethylpyridin-4-yl)-3-isopropyl-5-(1-(2-methoxypropyl)piperidin-4-yl)-1H-indole], for which the IC50 is 396 nM at human TLR9 (setting [4]), 4.5 nM on human TLR8 (setting [5]) and 5.2 nM on human TLR7 (setting [6]).

As for `Cc1cc(-c2[nH]c3ccc(C4CCN(C(=O)CN5CC(F)(F)C5)CC4)cc3c2C(C)C)cc(C)n1` [Example 340, 2-(3,3-difluoroazetidin-1-yl)-1-(4-(2-(2,6-dimethylpyridin-4-yl)-3-isopropyl-1H-indol-5-yl)piperidin-1-yl)ethan-1-one], the IC50 was 36000 nM on human TLR9 (setting [4]), 104 nM at human TLR8 (setting [5]) and 14.7 nM against human TLR7 (setting [6]).

Consider `Cc1cc(-c2[nH]c3ccc(C4CCN(CC(=O)N5CCC(F)CC5)CC4)cc3c2C(C)C)cc(C)n1` [Example 283, 2-(4-(2-(2,6-dimethylpyridin-4-yl)-3-isopropyl-1H-indol-5-yl)piperidin-1-yl)-1-(4-fluoropiperidin-1-yl)ethan-1-one], for which the IC50 was found to be 248 nM at human TLR9 (setting [4]), 8.9 nM at human TLR8 (setting [5]) and 2.6 nM against human TLR7 (setting [6]).

On to `Cc1cc(-c2[nH]c3ccc(C4CCNCC4O)cc3c2C(C)C)cc(C)n1` (single isomer, unassigned) [Example 488B, 4-(2-(2,6-dimethylpyridin-4-yl)-3-isopropyl-1H-indol-5-yl)piperidin-3-ol], for which the results for the concentration for half-maximal inhibition (IC50) against human TLR9 (setting [7]), at human TLR8 (setting [8]) and against human TLR7 (setting [6]) were 308 nM, 33.1 nM and 2.4 nM, respectively.

For `COc1cc(-c2[nH]c3ccc(C4CCN(CC(F)(F)F)CC4)cc3c2C(C)C)ccn1` [Example 639, 3-isopropyl-2-(2-methoxypyridin-4-yl)-5-(1-(2,2,2-trifluoroethyl)piperidin-4-yl)-1H-indole], the figures for the half-inhibitory concentration (IC50) on human TLR9 (setting [4]), at human TLR8 (setting [5]) and against human TLR7 (setting [6]) were 19400 nM, 13400 nM and 3110 nM, respectively.

Turning to `Cc1cc(C(=O)N2CCC(c3ccc4[nH]c(-c5cc(C)nc(C)c5)c(C(C)C)c4c3)CC2)c(=O)[nH]n1` [Example 135, 4-(4-(2-(2,6-dimethylpyridin-4-yl)-3-isopropyl-1H-indol-5-yl)piperidine-1-carbonyl)-6-methylpyridazin-3 (2H)-one], the IC50 at human TLR9 (setting [4]) was 13300 nM; at human TLR8 (setting [5]), 99.9 nM; on human TLR7 (setting [6]) it was 33.1 nM.

Consider `Cc1cc(-c2[nH]c3ccc(C4CCN(CC(=O)N5CCC5)CC4)cc3c2C(C)C)cc(C)n1` [Example 227, 1-(azetidin-1-yl)-2-(4-(2-(2,6-dimethylpyridin-4-yl)-3-isopropyl-1H-indol-5-yl)piperidin-1-yl)ethan-1-one], for which the IC50 on human TLR9 (setting [4]) came out at 1500 nM; at human TLR8 (setting [5]), 9.1 nM; against human TLR7 (setting [6]), 3.8 nM.

For `CCC(CC)NCC(=O)N1CCC(c2ccc3[nH]c(-c4cc(C)nc(C)c4)c(C(C)C)c3c2)CC1` [Example 345, 1-(4-(2-(2,6-dimethylpyridin-4-yl)-3-isopropyl-1H-indol-5-yl)piperidin-1-yl)-2-(pentan-3-ylamino)ethan-1-one], the results for the half-maximal inhibitory concentration (IC50) at human TLR9 (setting [4]), on human TLR8 (setting [5]) and against human TLR7 (setting [6]) were 544 nM, 34 nM and 12.3 nM, respectively.

Take `Cc1cc(-c2[nH]c3cc(F)c(C4CCN(C)CC4)cc3c2C(C)C)cc(C)n1` [Example 828, 2-(2,6-dimethylpyridin-4-yl)-6-fluoro-3-isopropyl-5-(1-methylpiperidin-4-yl)-1H-indole]: the IC50 at human TLR9 (setting [1]) stood at 267 nM; on human TLR8 (setting [2]), 4.8 nM; against human TLR7 (setting [3]) it was 1.2 nM.

In the case of `Cc1cc(-c2[nH]c3ccc(C4CCN(C(=O)Cn5nnc(N6CCOCC6)n5)CC4)cc3c2C(C)C)cc(C)n1` [Example 149, 1-(4-(2-(2,6-dimethylpyridin-4-yl)-3-isopropyl-1H-indol-5-yl)piperidin-1-yl)-2-(5-morpholino-2H-tetrazol-2-yl)ethan-1-one], the IC50 stood at 16100 nM on human TLR9 (setting [4]), 143 nM on human TLR8 (setting [5]) and 21.6 nM at human TLR7 (setting [6]).

Turning to `Cc1cc(-c2[nH]c3ccc(C4CCN(C(=O)C5CC(=O)N(C)C5)CC4)cc3c2CC(F)F)cc(C)n1` (stereo not drawn) [Example 534, 4-(4-(3-(2,2-difluoroethyl)-2-(2,6-dimethylpyridin-4-yl)-1H-indol-5-yl)piperidine-1-carbonyl)-1-methylpyrrolidin-2-one], the values for the IC50 on human TLR9 (setting [4]), on human TLR8 (setting [5]) and on human TLR7 (setting [6]) were 45400 nM, 660 nM and 63.8 nM, respectively.

For the compound `Cc1cc(-c2[nH]c3ccc(C4CCN(CC(C)(C)O)CC4)cc3c2C2CC2)cc(C)n1` [Example 668, 1-(4-(3-cyclopropyl-2-(2,6-dimethylpyridin-4-yl)-1H-indol-5-yl)piperidin-1-yl)-2-methylpropan-2-ol], the IC50 came out at 149 nM at human TLR9 (setting [4]), 7.6 nM on human TLR8 (setting [5]) and 14.3 nM against human TLR7 (setting [6]).

Turning to `Cc1cc(-c2[nH]c3ccc(C4CCN(C5CCN(C(C)C)CC5)CC4)cc3c2C(C)C)cc(C)n1` [Example 427, 2-(2,6-dimethylpyridin-4-yl)-3-isopropyl-5-(1′-isopropyl-[1,4′-bipiperidin]-4-yl)-1H-indole], the half-maximal inhibitory concentration (IC50) on human TLR9 (setting [4]) turned out to be 173 nM; on human TLR8 (setting [5]) it was 8.1 nM; at human TLR7 (setting [6]), 8.3 nM.

For `COc1cc(-c2[nH]c3ccc(C4CCN(C5CCN(CC(C)C)CC5)CC4)cc3c2C(C)C)ccn1` [Example 803, 5-(1′-isobutyl-[1,4′-bipiperidin]-4-yl)-3-isopropyl-2-(2-methoxypyridin-4-yl)-1H-indole], the IC50 at human TLR9 (setting [4]) was determined as 986 nM; on human TLR8 (setting [5]), 333 nM; against human TLR7 (setting [6]), 79.7 nM.

As for `COCCN1CCN(CC(=O)N2CCC(c3ccc4[nH]c(-c5cc(C)nc(C)c5)c(C(C)C)c4c3)CC2)CC1` [Example 372, 1-(4-(2-(2,6-dimethylpyridin-4-yl)-3-isopropyl-1H-indol-5-yl)piperidin-1-yl)-2-(4-(2-methoxyethyl)piperazin-1-yl)ethan-1-one], the values for the IC50 against human TLR9 (setting [7]), against human TLR8 (setting [8]) and against human TLR7 (setting [6]) were 602 nM, 14.1 nM and 1.9 nM, respectively.

Regarding `Cc1cc(-c2[nH]c3ccc(C4CCN(C(=O)CN5CCCC5)CC4)cc3c2C(C)C)cc(C)n1` [Example 352, 1-(4-(2-(2,6-dimethylpyridin-4-yl)-3-isopropyl-1H-indol-5-yl)piperidin-1-yl)-2-(pyrrolidin-1-yl)ethan-1-one], the IC50 on human TLR9 (setting [4]) was 365 nM; on human TLR8 (setting [5]) it was 10.4 nM; at human TLR7 (setting [6]) it was 3.3 nM.

Consider `CCc1c(-c2cc(C)nc(C)c2)[nH]c2ccc(C3CCN(C(=O)CN(C)C)CC3)cc12` [Example 528, 2-(dimethylamino)-1-(4-(2-(2,6-dimethylpyridin-4-yl)-3-ethyl-1H-indol-5-yl)piperidin-1-yl)ethan-1-one], for which the IC50 amounted to 150 nM on human TLR9 (setting [4]), 50.9 nM at human TLR8 (setting [5]) and 16 nM on human TLR7 (setting [6]).

`Cc1cc(-c2[nH]c3ccc(C4CCN(CCC#N)CC4)cc3c2C(C)C)c(C)cn1` [Example 665, 3-(4-(2-(2,5-dimethylpyridin-4-yl)-3-isopropyl-1H-indol-5-yl)piperidin-1-yl)propanenitrile]: the IC50 on human TLR9 (setting [4]) was found to be 6210 nM; on human TLR8 (setting [5]), 2.2 nM; against human TLR7 (setting [6]), 13.6 nM.

`Cc1cc(-c2[nH]c3ccc(C4CCN(C(=O)C(C)(C)C)CC4)cc3c2C(C)C)ccn1` [Example 601, 1-(4-(3-isopropyl-2-(2-methylpyridin-4-yl)-1H-indol-5-yl)piperidin-1-yl)-2,2-dimethylpropan-1-one]: the IC50 at human TLR9 (setting [4]) was determined as 34100 nM; on human TLR8 (setting [5]) it was 385 nM; on human TLR7 (setting [6]) it was 99.2 nM.

As to `Cc1cc(-c2[nH]c3ccc(C4CCN(C(=O)CN(C)C)CC4)cc3c2C2CC2)cc(C)n1` [Example 590, 1-(4-(3-cyclopropyl-2-(2,6-dimethylpyridin-4-yl)-1H-indol-5-yl)piperidin-1-yl)-2-(dimethylamino)ethan-1-one], the IC50 turned out to be 142 nM at human TLR9 (setting [4]), 18.4 nM at human TLR8 (setting [5]) and 4.2 nM against human TLR7 (setting [6]).
